Experimental data taken from PubChem BioAssay AID2060350 (Molecular Pharmacology Branch, DTP, NCI, 2025).
pIC50: −log10 of the molar value. Several values for one entry are separate records, joined by “and”; a condition that tells them apart may be missing. Equal values may be shown once.

System: PDC 521955-158-R6-J3 spheroids, viability
Assay: Anticancer human tumor 521955-158-R6-J3-PDC patient-derived pancreatic carcinoma cell line growth inhibition [TAK]
Settings: spheroids with HUVEC and MSC; for viability, T/C: stronger effect = lower value
Description: Combinatorial screen of targeted agents with TAK-243 and ipatasertib in multi-cell type tumor spheroids
A high-throughput screen of multi-cell type tumor spheroids was designed to identify active combinations of targeted small molecules and TAK-243 or ipatasertib. Complex spheroids include a stromal component modeled by human endothelial cells (HUVEC) and fibroblasts modeled by human mesenchymal stem cells (MSCs). The concentration ranges selected for each drug and investigational agent were based upon clinically achievable concentrations if the clinical Cmax of the agent was known.
Compounds. The drugs and investigational agents: TAK-243 (785004), ipatasertib (767898), everolimus (733504), selumetinib (741078), bortezomib (756655), trametinib (758246), ixazomib (758254), vemurafenib (761431), dabrafenib (764134), sapanisertib (764658), alpelisib (765974), and copanlisib (816437), were obtained from the National Cancer Institute (NCI) Developmental Therapeutics Program Chemical Repository. The FDA-approved anticancer drug set is available from the NCI Developmental Therapeutics Program. […] The stock solutions were prepared in dimethyl sulfoxide (DMSO, Sigma-Aldrich, St. Louis, MO, cat. D2650) at 800-fold the tested concentration and stored at -70 degrees C prior to their use. All drugs and investigational agents were tested over a range starting from a high concentration at or near the clinical Cmax and decreasing in half-log increments. If the clinical Cmax for an agent had not been determined, the highest concentration tested was 10 microM.
NCI60 Cell Culture. NCI60 cell lines were obtained from the NCI Developmental Therapeutics Program Tumor Repository. For each lot of cells, the Repository performed Applied Biosystems AmpFLSTR Identifiler testing with PCR amplification to confirm consistency with the published Identifier STR profile for each cell line. Cells were kept in continuous culture for no more than 20 passages. The optimal seeding densities for each of the cell lines at each time point assessed were determined prior to performing the concentration response studies. Briefly, the NCI60 human tumor lines were grown as monolayers in RPMI 1640 medium supplemented with 10% FBS and 2 mmol/L L-glutamine.
An additional 2 lines were from the NCI60 cell line panel including melanomas, MALME-3M and SK-MEL-2. Pooled donor human umbilical vein endothelial cells (HUVEC, Lonza, cat. CC-2519) and human mesenchymal stem cells (hMSC, Lonza, cat. PT-2501) were purchased from Lonza (Walkersville, MD).
PDMR cell lines were grown in complete medium (DC medium): Dulbecco's modified Eagle's medium (DMEM)/F12 supplemented with 5% fetal bovine serum (FBS), 2 mM L-glutamine, 100 U/mL penicillin and 100 µg/ml streptomycin, 0.4 µg/ml hydrocortisone, 10 ng/ml epidermal growth factor (EGF) recombinant human protein, 24 µg/mL adenine, and 0.1 mg/mL primocin. During culture from frozen stock vials, PDMR cells were cultured in the same medium containing 10 µM Y-27632 (see Table 3). The PDCs were cultured in complete DMEM/F12 media without 10 microM Y-27632 dihydrochloride for at least two passages prior to the screen. The pooled donor HUVEC and hMSC were cultured in endothelial cell growth medium 2 (PromoCell, Heidelberg, Germany, cat. C-22011) and mesenchymal stem cell growth medium 2 (PromoCell, cat. C-28009), respectively. For all experiments, HUVEC and hMSC were used at passages </=5.
For the pre-screen, cell seeding densities were determined from a titration spanning the range from 5,000 to 313 cells per well. The mct-spheroids including 60% malignant cells, 25% HUVEC and 15% MSC dispensed as a mixture into U-bottom Ultra-Low Attachment 384-well plates (Corning, NY)
High-throughput Drug Combination Screening.
Prior to their inoculation into 384-well plates, malignant cells, HUVEC, and hMSC were removed from T flasks using TrypLE express (Thermo Fisher Scientific, cat. 12605036) and harvested by centrifugation for 5 min at 233 x g. […]

[1] = curve of first compound, second compound 0.3 µM
[2] = curve of first compound, second compound 0.949 µM
[3] = curve of first compound, second compound 3 µM
[4] = curve of first compound, second compound 9.49 µM
[5] = curve of first compound, second compound 30 µM
[6] = second compound 0.3 µM, first compound 0.00316 µM
[7] = second compound 0.3 µM, first compound 0.01 µM
[8] = second compound 0.3 µM, first compound 0.0316 µM
[9] = second compound 0.3 µM, first compound 0.1 µM
[10] = second compound 0.949 µM, first compound 0.00316 µM
[11] = second compound 0.949 µM, first compound 0.01 µM
[12] = second compound 0.949 µM, first compound 0.0316 µM
[13] = second compound 0.949 µM, first compound 0.1 µM
[14] = second compound 3 µM, first compound 0.00316 µM
[15] = second compound 3 µM, first compound 0.01 µM
[16] = second compound 3 µM, first compound 0.0316 µM
[17] = second compound 3 µM, first compound 0.1 µM
[18] = second compound 9.49 µM, first compound 0.00316 µM
[19] = second compound 9.49 µM, first compound 0.01 µM
[20] = second compound 9.49 µM, first compound 0.0316 µM
[21] = second compound 9.49 µM, first compound 0.1 µM
[22] = second compound 30 µM, first compound 0.00316 µM
[23] = second compound 30 µM, first compound 0.01 µM
[24] = second compound 30 µM, first compound 0.0316 µM
[25] = second compound 30 µM, first compound 0.1 µM
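Further: spheroids exposed to drugs for 7 days before readout.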
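Wherever viability, T/C is given: 100% = DMSO vehicle control viability.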

| SMILES | pIC50 [1] | pIC50 [2] | pIC50 [3] | pIC50 [4] | pIC50 [5] | viability, T/C [6] | viability, T/C [7] | viability, T/C [8] | viability, T/C [9] | viability, T/C [10] | viability, T/C [11] | viability, T/C [12] | viability, T/C [13] | viability, T/C [14] | viability, T/C [15] | viability, T/C [16] | viability, T/C [17] | viability, T/C [18] | viability, T/C [19] | viability, T/C [20] | also measured |
| --- | --- | --- | --- | --- | --- | --- | --- | --- | --- | --- | --- | --- | --- | --- | --- | --- | --- | --- | --- | --- | --- |
| COC1CC2CCC(C)C(O)(O2)C(=O)C(=O)N2CCCCC2C(=O)OC(C(C)CC2CCC(OCCO)C(OC)C2)CC(=O)C(C)C=C(C)C(O)C(OC)C(=O)C(C)CC(C)C=CC=CC=C1C (configuration not stated) + CC(C)NCC(C(=O)N1CCN(c2ncnc3c2C(C)CC3O)CC1)c1ccc(Cl)cc1 | < 7.00 | < 7.00 | < 7.00 | < 7.00 | < 7.00 | 97% | 96.4% | 102% | 81.1% | 99.1% | 102% | 91.3% | 78% | 85.8% | 89.1% | 73.7% | 63.3% | 65% | 74.8% | 76.8% | viability, T/C (second compound 0.3 µM, first compound 0.000316 µM): 98.5%; viability, T/C (second compound 0.3 µM, first compound 0.001 µM): 93%; viability, T/C (second compound 0.949 µM, first compound 0.000316 µM): 95.8%; viability, T/C (second compound 0.949 µM, first compound 0.001 µM): 89.6%; viability, T/C (second compound 3 µM, first compound 0.000316 µM): 96.5%; viability, T/C (second compound 3 µM, first compound 0.001 µM): 78.3%; viability, T/C (second compound 9.49 µM, first compound 0.000316 µM): 86.2%; viability, T/C (second compound 9.49 µM, first compound 0.001 µM): 67.7%; viability, T/C [21]: 58.4%; viability, T/C (second compound 30 µM, first compound 0.000316 µM): 81.8%; viability, T/C (second compound 30 µM, first compound 0.001 µM): 59.6%; viability, T/C [22]: 55.9%; viability, T/C [23]: 62.8%; viability, T/C [24]: 56%; viability, T/C [25]: 48.4% |
| COc1c(OCCCN2CCOCC2)ccc2c3n(c(=NC(=O)c4cnc(N)nc4)nc12)CCN3 + CC(C)NCC(C(=O)N1CCN(c2ncnc3c2C(C)CC3O)CC1)c1ccc(Cl)cc1 | 7.42 | 8.13 | > 8.50 | > 8.50 | > 8.50 | 70.9% | 63.6% | 51.2% | 41% | 52.4% | 48.2% | 44.9% | 37.4% | 46.8% | 43.5% | 37.8% | 32.9% | 43.3% | 37.5% | 35.8% | viability, T/C (second compound 0.3 µM, first compound 0.316 µM): 27%; viability, T/C (second compound 0.3 µM, first compound 1 µM): 21.6%; viability, T/C (second compound 0.949 µM, first compound 0.316 µM): 25.9%; viability, T/C (second compound 0.949 µM, first compound 1 µM): 20.2%; viability, T/C (second compound 3 µM, first compound 0.316 µM): 25.7%; viability, T/C (second compound 3 µM, first compound 1 µM): 19.5%; viability, T/C [21]: 29.9%; viability, T/C (second compound 9.49 µM, first compound 0.316 µM): 22.8%; viability, T/C (second compound 9.49 µM, first compound 1 µM): 19.8%; viability, T/C [22]: 41.1%; viability, T/C [23]: 34.5%; viability, T/C [24]: 37%; viability, T/C [25]: 24.6%; viability, T/C (second compound 30 µM, first compound 0.316 µM): 18%; viability, T/C (second compound 30 µM, first compound 1 µM): 15.4% |
| Cn1cnc2c(F)c(Nc3ccc(Br)cc3Cl)c(C(=O)NOCCO)cc21 | – | – | – | – | – | – | – | – | – | – | – | – | – | – | – | – | – | – | – | – | viability, T/C (compound 0.00949 µM): 99.2% and 99.6%; viability, T/C (compound 0.03 µM): 88.9% and 88%; viability, T/C (compound 0.0949 µM): 77.6% and 83%; viability, T/C (compound 0.3 µM): 85.5% and 82.2%; viability, T/C (compound 0.949 µM): 56.9% and 70.8%; viability, T/C (compound 3 µM): 41.5% and 53.7%; pIC50 (curve of compound): 5.74 and < 5.52 |
